This passage reports Ki results from BindingDB's records for doi:10.1016/j.bmcl.2004.06.042 (Universidad De Buenos Aires, 2004).

In this experiment the target is Hypoxanthine-guanine phosphoribosyltransferase (Trypanosoma cruzi). The experiment can be described thus: Inhibition of hypoxanthine-guanine phosphoribosyltransferase (TcHPRT).

As a reminder, the Ki is the dissociation constant of the complex between target and ligand, obtained from inhibition or displacement. `CN(C)CCC(O)(P(=O)(O)O)P(=O)(O)O` [hydrogen 3-(dimethylammonio)-1-hydroxy-1-(hydroxyphosphinato)propylphosphonate] yielded a Ki of 126 µM.
